Columns and labels:
[1] = test system: Peas (Pisum sativum); assay: Post-emergence foliar spray, herbicidal/growth regulant response, peas; type: in vivo; conditions: Lathyrus oleraceus, 168 h, foliar spray 11.2 kg/ha, 7 days, 0=no effect, 100=complete kill, read-out: herbicidal or growth regulant response index
Procedure: (§1) Seeds of the plant species listed below were sown in anodised aluminium pans, 19 cm long×9.5 cm wide×5 cm deep, containing John Innes I potting compost. They were then watered and placed in a controlled environment room (22° C.; 65-85% relative humidity; 14 hours per day artificial illumination at 13,000 lux). Fourteen days after sowing, the seedlings received a foliar spray of a compound listed below, formulated as a solution in 1:1 by volume aqueous acetone. The concentration of active ingredient and volume of application were adjusted so as to be equivalent to a rate of 11.2 kg/ha in 450 liters per hectare. After seven days growth in the controlled environment room, the plants were visually assessed for any herbicidal or growth regulant response. All differences from the untreated control were scored according to an index where 0=no effect and 100=complete kill.
(§2) The product of Example 95 was tested according to the procedure of Examples 49-55.

[2] = test system: Mustard (Sinapis alba); assay: Post-emergence foliar spray, herbicidal/growth regulant response, mustard; type: in vivo; conditions: 168 h, foliar spray 11.2 kg/ha, 7 days, 0=no effect, 100=complete kill, read-out: herbicidal or growth regulant response index
Procedure: as §1, §2

[3] = test system: Linseed (Linum usitatissimum); assay: Post-emergence foliar spray, herbicidal/growth regulant response, linseed; type: in vivo; conditions: 168 h, foliar spray 11.2 kg/ha, 7 days, 0=no effect, 100=complete kill, read-out: herbicidal or growth regulant response index
Procedure: as §1, §2

[4] = test system: Ryegrass (Lolium perenne); assay: Post-emergence foliar spray, herbicidal/growth regulant response, ryegrass; type: in vivo; conditions: 168 h, foliar spray 11.2 kg/ha, 7 days, 0=no effect, 100=complete kill, read-out: herbicidal or growth regulant response index
Procedure: as §1, §2

[5] = test system: Sugarbeet (Beta vulgaris); assay: Post-emergence foliar spray, herbicidal/growth regulant response, sugarbeet; type: in vivo; conditions: 168 h, foliar spray 11.2 kg/ha, 7 days, 0=no effect, 100=complete kill, read-out: herbicidal or growth regulant response index
Procedure: as §1, §2

[6] = test system: Oat (Avena sativa); assay: Post-emergence foliar spray, herbicidal/growth regulant response, oat; type: in vivo; conditions: 168 h, foliar spray 11.2 kg/ha, 7 days, 0=no effect, 100=complete kill, read-out: herbicidal or growth regulant response index
Procedure: as §1, §2

[7] = test system: French beans (Phaseolus vulgaris); assay: Post-emergence foliar spray, herbicidal/growth regulant response, French beans; type: in vivo; conditions: foliar spray 11.2 kg/ha, 7 days, 0=no effect, 100=complete kill
Procedure: as §1, §2

[8] = test system: Peas (Pisum sativum); assay: Soil incorporation (attaclay/sand dust), growth regulatory or herbicidal effects, peas; type: in vivo; conditions: Lathyrus oleraceus, 504 h, soil incorporation 26 ppm, 21 days, 0=no effect, 100=complete kill, read-out: growth regulatory or herbicidal effect score
Procedure, shortened: (§3)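 Active ingredient formulated as attaclay/sand dust and mixed into John Innes I potting compost at 26 or 130 ppm w/v (about 11.2 or 56 kg a.i./ha cultivated to 5 cm). Seeds sown in treated soil, grown 21 days at 22° C, 65-85% RH, 14 h light at 13,000 lux; visual score 0-100 versus untreated control.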

[9] = test system: Mustard (Sinapis alba); assay: Soil incorporation (attaclay/sand dust), growth regulatory or herbicidal effects, mustard; type: in vivo; conditions: 504 h, soil incorporation 26 ppm, 21 days, 0=no effect, 100=complete kill, read-out: growth regulatory or herbicidal effect score
Procedure, shortened: as §3

[10] = test system: Linseed (Linum usitatissimum); assay: Soil incorporation (attaclay/sand dust), growth regulatory or herbicidal effects, linseed; type: in vivo; conditions: 504 h, soil incorporation 26 ppm, 21 days, 0=no effect, 100=complete kill, read-out: growth regulatory or herbicidal effect score
Procedure, shortened: as §3

[11] = test system: Maize (Zea mays); assay: Soil incorporation (attaclay/sand dust), growth regulatory or herbicidal effects, maize; type: in vivo; conditions: 504 h, soil incorporation 26 ppm, 21 days, 0=no effect, 100=complete kill, read-out: growth regulatory or herbicidal effect score
Procedure, shortened: as §3

[12] = test system: Oats (Avena sativa); assay: Soil incorporation (attaclay/sand dust), growth regulatory or herbicidal effects, oats; type: in vivo; conditions: 504 h, soil incorporation 26 ppm, 21 days, 0=no effect, 100=complete kill, read-out: growth regulatory or herbicidal effect score
Procedure, shortened: as §3

[13] = test system: Ryegrass (Lolium perenne); assay: Soil incorporation (attaclay/sand dust), growth regulatory or herbicidal effects, ryegrass; type: in vivo; conditions: 504 h, soil incorporation 26 ppm, 21 days, 0=no effect, 100=complete kill, read-out: growth regulatory or herbicidal effect score
Procedure, shortened: as §3

[14] = test system: Chickweed (Stellaria media); assay: Pre-emergence soil surface spray, chickweed; type: in vivo; conditions: soil surface spray 2.8 kg/ha, 21 days, 0=no effect, 100=complete kill
Excerpt: (§4) Seeds of the plant species listed below were sown in John Innes I potting compost in aluminium pans, 19 cm long×9.5 cm wide×5.0 cm high, one species per pan. The soil surface was then sprayed with a compound listed below, formulated as a solution in 1:1 by volume aqueous acetone except for the compound of Example 44 which was formulated as an aqueous suspension containing 1000 parts per million of the wetting agent Lissapol NX (nonylphenol/ethylene oxide condensate). Each compound was applied at a rate of 2.8 kg of active ingredient per hectare in 450 liters of spray liquid per hectare. The pans were then watered, and placed in a controlled environment room (22° C., relative humidity 65-85%, 14 hours per day artificial illumination at 17,000 lux) for 21 days. The plants were then visually assessed for any growth regulatory or herbicidal effects. All differences from an untreated control were scored on a scale from 0-100, where 0 signifies no effect and 100 signifies complete kill.

[15] = test system: Mustard (Sinapis alba); assay: Pre-emergence soil surface spray, mustard; type: in vivo; conditions: soil surface spray 2.8 kg/ha, 21 days, 0=no effect, 100=complete kill
Excerpt: as §4

[16] = test system: Cotton (Gossypium sp.); assay: Pre-emergence soil surface spray, cotton; type: in vivo; conditions: soil surface spray 2.8 kg/ha, 21 days, 0=no effect, 100=complete kill
Excerpt: as §4

[17] = test system: Tomato (Lycopersicon esculentum); assay: Pre-emergence soil surface spray, tomato; type: in vivo; conditions: soil surface spray 2.8 kg/ha, 21 days, 0=no effect, 100=complete kill
Excerpt: as §4

[18] = test system: Fathen (Chenopodium album); assay: Pre-emergence soil surface spray, fathen; type: in vivo; conditions: soil surface spray 2.8 kg/ha, 21 days, 0=no effect, 100=complete kill
Excerpt: as §4

[19] = test system: Carrot (Daucus carota); assay: Pre-emergence soil surface spray, carrot; type: in vivo; conditions: soil surface spray 2.8 kg/ha, 21 days, 0=no effect, 100=complete kill
Excerpt: as §4

[20] = test system: Wheat (Triticum aestivum); assay: Pre-emergence soil surface spray, wheat; type: in vivo; conditions: soil surface spray 2.8 kg/ha, 21 days, 0=no effect, 100=complete kill
Excerpt: as §4

[21] = test system: Barley (Hordeum vulgare); assay: Pre-emergence soil surface spray, barley; type: in vivo; conditions: soil surface spray 2.8 kg/ha, 21 days, 0=no effect, 100=complete kill
Excerpt: as §4

[22] = test system: Wild Oat (Avena fatua); assay: Pre-emergence soil surface spray, wild oat; type: in vivo; conditions: soil surface spray 2.8 kg/ha, 21 days, 0=no effect, 100=complete kill
Excerpt: as §4

[23] = test system: Blackgrass (Alopecurus myosuroides); assay: Pre-emergence soil surface spray, blackgrass; type: in vivo; conditions: soil surface spray 2.8 kg/ha, 21 days, 0=no effect, 100=complete kill
Excerpt: as §4

[24] = test system: Barnyardgrass (Echinochloa crus-galli); assay: Pre-emergence soil surface spray, barnyardgrass; type: in vivo; conditions: soil surface spray 2.8 kg/ha, 21 days, 0=no effect, 100=complete kill
Excerpt: as §4

[25] = test system: Crabgrass (Digitaria sanguinalis); assay: Pre-emergence soil surface spray, crabgrass; type: in vivo; conditions: soil surface spray 2.8 kg/ha, 21 days, 0=no effect, 100=complete kill
Excerpt: as §4

[26] = test system: cucumber powdery mildew Erysiphe cichoracearum; assay: Cucumber powdery mildew control on cucumber plants; type: in vivo; conditions: 2000 mg per liter; soil and leaves; 14 days; controls less than 5%
[27] = test system: Xanthomonas malvacearum; assay: Bacterial growth in dextrose nutrient broth; type: cell-based; conditions: 200 ppm weight/volume; 8 days incubation at 25° C.
Procedure: A 1% suspension/solution of the product of Example 157 in polyethylene glycol (Carbowax 400) was added to a dextrose nutrient broth to give a concentration of 1,000 parts per million (ppm) weight/volume of medium. Dilution in test tubes was then carried out to give a concentration of 200 ppm weight/volume of medium. To 8 ml quantities of broth was added 0.2 ml of a dense broth culture of the bacterium causing black arm of cotton, Xanthomonas malvacearum. After 8 days incubation at 25° C., all the broth specimens were examined for signs of bacterial growth.

[28] = test system: Pythium ultimum; assay: Fungal growth on the surface of soil infected with damping-off disease organism; type: in vivo; conditions: 6 days, 25° C.
[29] = test system: Pythium ultimum; assay: Cabbage seedling emergence in soil infected with Pythium ultimum; type: in vivo, Pythium ultimum (on cabbage, variety Flower of Spring); conditions: 6 days, 25° C.
Procedure, shortened: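 Potting compost infested with one-week maize meal/sand Pythium ultimum culture (3 kg per 12 l soil), drenched with compound in Tween 20/water at 1500, 500, 150 or 50 ppm; 15 cabbage seeds sown per carton, 25° C, four replicates. After six days, soil-surface fungal growth and seedling emergence scored 0-8.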

[30] = test system: cabbage seeds, variety Flower of Spring; assay: Phytotoxicity of chemical alone on cabbage seed germination (chemical only soil treatment); type: in vivo
Procedure: Fifteen cabbage seeds, variety Flower of Spring, were placed in a circular depression in the treated infected soil, recovered, and the whole sealed with a plastic cap. The cartons were then placed in a constant temperature room at 25° C.±1° C. Four replications per treatment were made, with one additional treatment where seeds were sown in soil which was chemically treated only, i.e. there was no infection. This latter treatment was included to measure the direct effect of the chemical on the germination of the seed. and are given in the following table. Any phytotoxicity induced by the chemical alone is deduced from the chemical only soil treatment.

[31] = test system: vine downy mildew, Plasmopara viticola; assay: Vine downy mildew control on vine plants (application to soil and leaves); type: in vivo; conditions: 2000 ppm, 12 days, controls less than 5%
Procedure: Aqueous acetone solutions of each of the compounds listed in the Table below, containing 2000 parts per million (ppm), together with 125 ppm of a suitable wetting agent, were applied to the soil surrounding the roots and leaves of vine plants having five fully expanded leaves.
The treated plants, together with controls treated with wetting agent alone, were inoculated 24 hours after the chemical application with an aqueous suspension of sporangia of the disease organism known as vine downy mildew, Plasmopara viticola.

[32] = test system: acetylcholinesterase; assay: Standard test indicative of insecticidal activity: inhibition of acetylcholinesterase; type: biochemical; conditions: 100 micromolar concentration
[33] = 100 ppm, 0-8 scale (Examples 233, 234)
[34] = 300 ppm, 0-8 scale (Examples 233, 234, 268)

Compound | pest or weed control at 11200 g/ha [1] [%] | pest or weed control at 11200 g/ha [2] [%] | pest or weed control at 11200 g/ha [3] [%] | pest or weed control at 11200 g/ha [4] [%] | plant injury at 11200 g/ha [5] [%] | plant injury at 11200 g/ha [6] [%] | herbicidal or growth regulant response index [7] | pest or weed control at 26 µg/mL [8] [%] | pest or weed control at 26 µg/mL [9] [%] | pest or weed control at 26 µg/mL [10] [%] | plant injury at 26 µg/mL [11] [%] | plant injury at 26 µg/mL [12] [%] | pest or weed control at 26 µg/mL [13] [%] | growth regulatory or herbicidal effect score [14] | growth regulatory or herbicidal effect score [15] | growth regulatory or herbicidal effect score [16] | growth regulatory or herbicidal effect score [17] | growth regulatory or herbicidal effect score [18] | growth regulatory or herbicidal effect score [19] | growth regulatory or herbicidal effect score [20] | further results
CCOC(=O)C(C)N(c1c(C)cccc1C)S(C)(=O)=O (stereo not drawn) [Example 15] | 5 | 90 | 90 | 10 | 90 | 5 | 70 | 0 | 100 | 70 | 50 | 20 | 100 | 30 | 10 | 0 | 20 | 100 | 0 | 0 | growth regulatory or herbicidal effect score [21]: 0; growth regulatory or herbicidal effect score [22]: 5; growth regulatory or herbicidal effect score [23]: 20; growth regulatory or herbicidal effect score [24]: 40; growth regulatory or herbicidal effect score [25]: 100; fungus control, cucumber powdery mildew [26]: 82%
CCOC(=O)C(C)N(c1c(C)cccc1Cl)S(C)(=O)=O (stereo not drawn) [Example 22] | 5 | 80 | 30 | 5 | 80 | 5 | 80 | 0 | 100 | 100 | 50 | 50 | 90 | 50 | 90 | 0 | 40 | 100 | 0 | 0 | growth regulatory or herbicidal effect score [21]: 0; growth regulatory or herbicidal effect score [22]: 0; growth regulatory or herbicidal effect score [23]: 40; growth regulatory or herbicidal effect score [24]: 0; growth regulatory or herbicidal effect score [25]: 90
CS(=O)(=O)N(CC(N)=S)c1cccc(Cl)c1Cl [Example 157] |  |  |  |  |  |  |  |  |  |  |  |  |  |  |  |  |  |  |  |  | bacterial growth [27]: No growth occurred
COC(C)(CN(c1c(C)cccc1Cl)S(C)(=O)=O)OC [Example 222, N-(2,2-dimethoxypropyl)-2'-chloro-6'-methyl-methanesulphonanilide] |  |  |  |  |  |  |  |  |  |  |  |  |  |  |  |  |  |  |  |  | Mycelial Control Score [28, 33]: 3 (45-54% inhibition); Mycelial Control Score [28, 34]: 4 (55- 64% inhibition); Germination Score [29, 33]: 1 (20-34% inhibition); Germination Score [29, 34]: 1 (20-34% inhibition); Phytotoxicity Score ([30]; 100 ppm): 0; Phytotoxicity Score ([30]; 300 ppm): 0; % Control Vine Downing Mildew [31]: 94%
CNC(=O)ON=C(C)CN(c1c(C)cccc1C)S(C)(=O)=O [Example 248, N-[2-(methylcarbamoyloxyimino)propyl]-2',6'-dimethylmethanesulphonanilide] |  |  |  |  |  |  |  |  |  |  |  |  |  |  |  |  |  |  |  |  | inhibition of acetylcholinesterase [32]: 30%
